Patent US11673910B2, “Macrolides with modified desosamine sugars and uses thereof” (Zikani Therapeutics, Inc., priority 2017, dated 2023)
≈ marks a conversion by molar mass, not a printed value.

Tests used:
Format in all cases: cell-based
E. coli strain MP-4 = assay: Broth dilution MIC determination (CLSI) against E. coli strain MP-4; conditions: Escherichia coli, MP4
Method in brief: (§1)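 Reported scores reflect MIC ranges, with +++ at or below 4 mg/L, ++ from 8 up to under 32 mg/L, and + at 32 mg/L or higher. The macrolides were tested following CLSI broth dilution procedures.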

[1] = tested on: K. pneumoniae strain MP-548; assay: Broth dilution MIC determination (CLSI) against K. pneumoniae strain MP-548; conditions: Klebsiella pneumoniae, MP548
Method in brief: as §1

[2] = tested on: P. aeruginosa strain MP-3; assay: Broth dilution MIC determination (CLSI) against P. aeruginosa strain MP-3; conditions: Pseudomonas aeruginosa, MP3
Method in brief: as §1

[3] = tested on: A. baumannii strain MP-15; assay: Broth dilution MIC determination (CLSI) against A. baumannii strain MP-15; conditions: Acinetobacter baumannii, MP15
Method in brief: as §1

S. aureus strain MP-12 = assay: Broth dilution MIC determination (CLSI) against S. aureus strain MP-12; conditions: for MIC: Staphylococcus aureus, MP12, strain MP-12
Method in brief: as §1

SMILES | MIC (E. coli strain MP-4) | MIC [1] | MIC [2] | MIC [3] | MIC (S. aureus strain MP-12) | MIC against S. aureus (MP-12) (S. aureus strain MP-12; strain MP-12)
CC[C@H]1OC(=O)C(C)C(=O)[C@H](C)[C@@H](OC2OC(C(=O)N(C)C3CC3)CC(N(C)C)C2O)[C@](C)(OC)C[C@@H](C)CN[C@H](C)[C@H]2NC(=O)O[C@@]21C (stereo partly shown) [Compound 168, 3-Descladinosyl-3-oxo-6-O-methyl-N9a-desmethyl-11,12-dideoxy-12,11-(oxycarbonylimino)-5′-desmethyl-5′-(N,N-cyclopropyl(methyl)carboxamido) Azithromycin] | ≥ 32 µg/mL | ≥ 32 µg/mL | ≥ 32 µg/mL | ≥ 32 µg/mL | ≥ 32 µg/mL | 
CC[C@H]1OC(=O)C(C)C(=O)[C@H](C)[C@@H](O[C@@H]2OC(CNCc3ccc(S(C)(=O)=O)cc3)CC(N(C)C)C2O)[C@](C)(OC)C[C@@H](C)CN[C@H](C)[C@H]2NC(=O)O[C@@]21C (stereo partly shown) [Compound 45] | ≥ 32 µg/mL | ≥ 32 µg/mL | ≥ 32 µg/mL | ≥ 32 µg/mL | ≥ 32 µg/mL | 
CC[C@H]1OC(=O)C(C)C(=O)[C@H](C)[C@@H](OC2OC(CNC)CC(N(C)C)C2O)[C@](C)(OC)C[C@@H](C)CN[C@H](C)[C@H]2NC(=O)O[C@@]21C (stereo partly shown) [Compound 106, 3-Descladinosyl-3-oxo-6-O-methyl-N9a-desmethyl-11,12-dideoxy-12,11-(oxycarbonylimino)-6′-methylamino Azithromycin] | 8 to 32 µg/mL (≈ 12.4 to 49.8 µM) | ≥ 32 µg/mL | ≥ 32 µg/mL | ≥ 32 µg/mL | ≥ 32 µg/mL | 
CC[C@H]1OC(=O)[C@@]2(C)CCOC(C)(C[C@@H](C)CN(C)[C@H](C)[C@H]3NC(=O)O[C@@]31C)[C@H](O[C@@H]1OC(CN)CC(N(C)C)C1O)[C@@H](C)C2=O (stereo partly shown) [Compound 218] | 8 to 32 µg/mL (≈ 12.2 to 48.9 µM) | ≥ 32 µg/mL | ≥ 32 µg/mL | ≥ 32 µg/mL | 8 to 32 µg/mL (≈ 12.2 to 48.9 µM) | 
CC[C@H]1OC(=O)[C@@]2(C)CCOC(C)(C[C@@H](C)CN(C(=O)C(F)(F)F)[C@H](C)[C@H]3NC(=O)O[C@@]31C)[C@H](O[C@@H]1OC(C)CC(N(C)C)C1O)[C@@H](C)C2=O (stereo partly shown) [Compound 220] | ≥ 32 µg/mL | ≥ 32 µg/mL | ≥ 32 µg/mL | ≥ 32 µg/mL | ≥ 32 µg/mL | 
CC[C@H]1OC(=O)C(C)C(=O)[C@H](C)[C@@H](OC2OC(CNC3(C)CC3)CC(N(C)C)C2O)[C@](C)(OC)C[C@@H](C)CN[C@H](C)[C@H]2NC(=O)O[C@@]21C (stereo partly shown) [Compound 133, 3-Descladinosyl-3-oxo-6-O-methyl-N9a-desmethyl-11,12-dideoxy-12,11-(oxycarbonylimino)-6′-(1-methyl-1-cyclopropylamino) Azithromycin] | ≤ 4 µg/mL | 8 to 32 µg/mL (≈ 11.7 to 46.9 µM) | ≥ 32 µg/mL | 8 to 32 µg/mL (≈ 11.7 to 46.9 µM) | 8 to 32 µg/mL (≈ 11.7 to 46.9 µM) | 
CC[C@H]1OC(=O)[C@]2(C)CCO[C@](C)(C[C@@H](C)CN[C@H](C)[C@H]3NC(=O)O[C@@]31C)[C@H](O[C@@H]1O[C@H](CO)C[C@H](N(C)C)[C@H]1O)[C@@H](C)C2=O [Compound 194] | ≥ 32 µg/mL | ≥ 32 µg/mL | ≥ 32 µg/mL | ≥ 32 µg/mL | ≥ 32 µg/mL | 
CC[C@H]1OC(=O)C(C)C(=O)[C@H](C)[C@@H](OC2OC(CN3CC4CC4C3)CC(N(C)C)C2O)[C@](C)(OC)C[C@@H](C)CN[C@H](C)[C@H]2NC(=O)O[C@@]21C (stereo partly shown) [Compound 137, 3-Descladinosyl-3-oxo-6-O-methyl-N9a-desmethyl-11,12-dideoxy-12,11-(oxycarbonylimino)-6′-azabicyclo[3.1.0]hexan-3″-ylamino Azithromycin] | ≤ 4 µg/mL | 8 to 32 µg/mL (≈ 11.5 to 46 µM) | ≥ 32 µg/mL | 8 to 32 µg/mL (≈ 11.5 to 46 µM) | ≥ 32 µg/mL | 
CC[C@H]1OC(=O)[C@@]2(C)CCOC(C)(C[C@@H](C)CN(C3CC3)[C@H](C)[C@H]3NC(=O)O[C@@]31C)[C@H](O[C@@H]1OC(C)CC(N(C)C)C1O)[C@@H](C)C2=O (stereo partly shown) [Compound 210] | 8 to 32 µg/mL (≈ 12 to 48.1 µM) | ≥ 32 µg/mL | ≥ 32 µg/mL | ≥ 32 µg/mL | ≤ 4 µg/mL | 
CC[C@H]1OC(=O)C(C)C(=O)[C@H](C)[C@@H](O[C@@H]2OC(CNCc3cncc(-n4cncn4)n3)CC(N(C)C)C2O)[C@](C)(OC)C[C@@H](C)CN[C@H](C)[C@H]2NC(=O)O[C@@]21C (stereo partly shown) [Compound 26] | ≥ 32 µg/mL | ≥ 32 µg/mL | ≥ 32 µg/mL | ≥ 32 µg/mL | ≥ 32 µg/mL | 
CC[C@H]1OC(=O)C(C)C(=O)[C@H](C)[C@@H](O[C@@H]2O[C@H]([C@@H](C)N(C)C)CC(N(C)C)[C@H]2O)[C@](C)(OC)C[C@@H](C)CN[C@H](C)[C@H]2NC(=O)O[C@@]21C (stereo partly drawn) [Compound 176, 3-Descladinosyl-3-oxo-6-O-methyl-N9a-desmethyl-11,12-dideoxy-12,11-(oxycarbonylimino)-6′-((R)-(dimethylamino)ethyl) Azithromycin] | ≥ 32 µg/mL | ≥ 32 µg/mL | ≥ 32 µg/mL | ≥ 32 µg/mL | ≥ 32 µg/mL | 
CC[C@H]1OC(=O)C(C)C(=O)[C@H](C)[C@@H](OC2OC(CNC3CC3)CC(N(C)C)C2O)[C@](C)(OC)C[C@@H](C)CN[C@H](C)[C@H]2NC(=O)O[C@@]21C (stereo partly shown) [Compound 118, 3-Descladinosyl-3-oxo-6-O-methyl-N9a-desmethyl-11,12-dideoxy-12,11-(oxycarbonylimino)-6′-cyclopropylamino Azithromycin] | ≤ 4 µg/mL | ≤ 4 µg/mL | ≥ 32 µg/mL | ≥ 32 µg/mL | 8 to 32 µg/mL (≈ 12 to 47.8 µM) | 
CC[C@H]1OC(=O)C(C)C(=O)[C@H](C)[C@@H](OC2OC(CN3CCCC3)CC(N(C)C)C2O)[C@](C)(OC)C[C@@H](C)CN[C@H](C)[C@H]2NC(=O)O[C@@]21C (stereo partly shown) [Compound 122, 3-Descladinosyl-3-oxo-6-O-methyl-N9a-desmethyl-11,12-dideoxy-12,11-(oxycarbonylimino)-6′-(1-pyrrolodinyl) Azithromycin] | ≤ 4 µg/mL | 8 to 32 µg/mL (≈ 11.7 to 46.9 µM) | ≥ 32 µg/mL | ≥ 32 µg/mL | ≥ 32 µg/mL | 
CC[C@H]1OC(=O)[C@]2(C)CCOC(C)(C[C@@H](C)CN[C@H](C)[C@H]3NC(=O)O[C@@]31C)[C@H](O[C@@H]1O[C@H](CNC34CC(C3)C4)C[C@H](N(C)C)[C@H]1O)[C@@H](C)C2=O [Compound 212] | ≤ 4 µg/mL | 8 to 32 µg/mL (≈ 11.3 to 45.3 µM) | ≥ 32 µg/mL | 8 to 32 µg/mL (≈ 11.3 to 45.3 µM) |  | +++ (values less than or equal to 4 mg/L)
CC[C@H]1OC(=O)[C@@](C)(F)C(=O)[C@H](C)[C@@H](O[C@@H]2OC(COCCO)CC(N(C)C)C2O)[C@](C)(OC)C[C@@H](C)C(=O)[C@H](C)[C@H]2NC(=O)O[C@@]21C (stereo partly shown) [Compound 103] | ≥ 32 µg/mL | ≥ 32 µg/mL | ≥ 32 µg/mL | ≥ 32 µg/mL | ≤ 4 µg/mL | 
CC[C@H]1OC(=O)[C@@]2(C)CCOC(C)(C[C@@H](C)CN[C@H](C)[C@H]3NC(=O)O[C@@]31C)[C@H](O[C@@H]1OC(CNC3CC3)CC(N(C)C)C1O)[C@@H](C)C2=O (stereo partly shown) [Compound 80] | ≤ 4 µg/mL | ≤ 4 µg/mL | 8 to 32 µg/mL (≈ 11.7 to 47 µM) | 8 to 32 µg/mL (≈ 11.7 to 47 µM) | ≤ 4 µg/mL | 
CC[C@H]1OC(=O)C(C)C(=O)[C@H](C)[C@@H](O[C@@H]2OC(CNCc3ccc(C(F)(F)F)cc3)CC(N(C)C)C2O)[C@](C)(OC)C[C@@H](C)CN[C@H](C)[C@H]2NC(=O)O[C@@]21C (stereo partly shown) [Compound 35] | ≤ 4 µg/mL | ≥ 32 µg/mL | ≥ 32 µg/mL | 8 to 32 µg/mL (≈ 10.2 to 40.7 µM) | ≥ 32 µg/mL | 
